One assay addresses T1, CB1 cannabinoid receptor (Rattus norvegicus, UniProt P20272).
T1 construct: membranes were prepared from rat forebrain membranes; from tissue; host or cells: rat forebrain
Put plainly: CB1 receptor binding, rat forebrain membranes, [3H] CP-55,940 displacement. To be noted: for Ki: 0.8 nM [3H] CP-55,940; for selectivity CB1: ratio of CB2 Ki to CB1 Ki. On the procedure:
Some of the inventive analogs were tested for CB2 receptor binding affinity and for CB1 receptor affinity (to determine selectivity). […] The lower the Ki value the higher the binding affinity. […]
Membranes, previously frozen at −80° C., were thawed on ice. To the stirred suspension was added three volumes of TME (25 mM Tris-HCl buffer, 5 mM MgCl2 and 1 mM EDTA) at a pH 7.4. The suspension was incubated at 4° C. for 30 min. At the end of the incubation, the membranes were pelleted and washed three times with TME.
(§1) The treated membranes were subsequently used in the binding assay described below. Approximately 30 μg of membranes were incubated in silanized 96-well microtiter plate with TME containing 0.1% essentially fatty acid-free bovine serum albumin (BSA), 0.8 nM [^3H] […] Radioactivity was detected using MicroScint 20 scintillation cocktail added directly to the dried filterplates, and the filterplates were counted using a Packard Instruments Top-Count. […] Data collected from three independent experiments performed with duplicate determinations was normalized between 100% and 0% specific binding for [^3H] […] The normalized data was analyzed using a 4-parameter nonlinear logistic equation to yield IC50 values.

The target in another assay is T2, CB2 receptor (Mus musculus, UniProt P47936).
T2 construct: membranes were prepared from frozen mouse spleen; from tissue; host or cells: mouse spleen
Put plainly: CB2 receptor binding, mouse spleen membranes, same manner as the CB1 binding assay. Particulars: for Ki: [3H] CP-55,940; for selectivity CB2: ratio of CB1 Ki to CB2 Ki. On the procedure: Some of the inventive analogs were tested for CB2 receptor binding affinity and for CB1 receptor affinity (to determine selectivity). […] The lower the Ki value the higher the binding affinity.
as §1
Silanized centrifuge tubes were used throughout to minimize receptor loss due to adsorption. The CB2 binding assay was conducted in the same manner as for the CB1 binding assay. The binding affinities (Ki) were also expressed in nanomoles (nM).

[1] abbreviates: affinities Ki CB1, rat forebrain membranes.
Setting [2] is: affinities Ki CB2, mouse spleen membranes.
[3] abbreviates: rat forebrain membranes, read-out: affinities Ki CB1.
Where [4] appears, read: mouse spleen membranes, read-out: affinities Ki CB2.

Values joined by “and” are separate entries in the source; they are usually repeats but may differ in a detail not shown here. Equal entries are not always repeated. Where two headings read alike, the source gives them in different places.

T1 sequence (P20272 whole entry): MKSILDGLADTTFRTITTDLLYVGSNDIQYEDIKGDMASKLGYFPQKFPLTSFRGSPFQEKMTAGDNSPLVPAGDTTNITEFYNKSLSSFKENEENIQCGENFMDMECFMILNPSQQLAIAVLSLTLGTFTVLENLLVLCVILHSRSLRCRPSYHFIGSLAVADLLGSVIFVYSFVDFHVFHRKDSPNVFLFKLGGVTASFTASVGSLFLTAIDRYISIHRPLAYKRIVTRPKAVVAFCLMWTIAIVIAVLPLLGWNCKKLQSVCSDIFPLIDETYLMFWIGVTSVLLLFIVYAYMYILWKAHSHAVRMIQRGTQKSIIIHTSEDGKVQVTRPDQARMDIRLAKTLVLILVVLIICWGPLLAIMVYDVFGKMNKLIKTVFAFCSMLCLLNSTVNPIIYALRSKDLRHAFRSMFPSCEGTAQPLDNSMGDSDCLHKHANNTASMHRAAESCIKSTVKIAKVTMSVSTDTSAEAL
T2 sequence (P47936 whole entry): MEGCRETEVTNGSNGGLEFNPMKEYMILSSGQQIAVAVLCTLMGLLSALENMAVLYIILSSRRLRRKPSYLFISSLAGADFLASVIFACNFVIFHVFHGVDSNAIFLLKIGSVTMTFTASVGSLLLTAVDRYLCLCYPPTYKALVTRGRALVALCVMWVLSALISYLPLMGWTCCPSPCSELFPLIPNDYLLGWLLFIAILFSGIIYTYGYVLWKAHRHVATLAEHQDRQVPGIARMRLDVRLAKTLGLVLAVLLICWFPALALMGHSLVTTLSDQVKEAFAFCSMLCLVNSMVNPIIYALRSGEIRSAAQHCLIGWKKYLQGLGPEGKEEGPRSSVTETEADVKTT

For `COCc1c(C(=O)NN2CCCCC2)nn(-c2ccc(Cl)cc2Cl)c1-c1ccc(Br)cc1` [Compound 1-8], the inhibition constant (Ki) on CB1 cannabinoid receptor (setting [1]) was found to be 19 nM; at CB2 receptor (setting [2]), 561 nM. Besides, the “selectivity CB1” value at CB1 cannabinoid receptor is 31.
As to `Cn1nnc(-c2ccc(-c3c(CO)c(C(=O)NC4CCCCC4)nn3-c3ccc(Cl)cc3Cl)cc2)n1` [Compound 2-12], the Ki came to 37 nM at CB1 cannabinoid receptor (setting [3]) and 36.5 nM at CB2 receptor (setting [4]). Besides, on CB1 cannabinoid receptor, the “selectivity CB1” value stood at 1.
For `Cc1c(C(=O)N(C)C2CCCCC2)nn(-c2ccc(Cl)cc2Cl)c1-c1ccc(-c2nnn(C)n2)cc1` [Compound 2-15], in that order: 105 nM, 551 nM and 5.2.
For `COCc1c(C(=O)NC2CCCCC2)nn(-c2ccc(Cl)cc2Cl)c1-c1ccc(-c2ccccn2)cc1` [Compound 1-20], in that order: 51 nM, 277 nM and 5.4.
In the same order, the values of `COCOCc1c(C(=O)NC2CCCCC2)nn(-c2ccc(Cl)cc2Cl)c1-c1ccc(Br)cc1` [Compound 1-13] are 15 nM, 54 nM and 3.6.
In the case of `COCc1c(C(=O)NC2CCCCC2)nn(-c2ccc(Cl)cc2Cl)c1-c1ccc(I)cc1` [Compound 1-22], the Ki amounted to 15 nM on CB1 cannabinoid receptor (setting [3]) and 675 nM at CB2 receptor (setting [4]). The “selectivity CB1” value at CB1 cannabinoid receptor stood at 45.
In the same order, the values of `O=C(NC1CCCCC1)c1nn(-c2ccc(Cl)cc2Cl)c(-c2ccc(-c3nnn[nH]3)cc2)c1CO` [Compound 2-10] are 192 nM, 463 nM and 2.4.
For `Cc1c(C(=O)NN2CCCCC2)nn(-c2ccc(Cl)cc2Cl)c1-c1ccc(C#N)cc1` [Compound 3-23], in that order: 22 nM, 4690 nM and 213.3.
Consider `Cc1c(C(=O)NC2C3CC4CC(C3)CC2C4)nn(CCCCCCl)c1-c1ccccc1` (stereo not shown) [Compound 4-4], for which the Ki was 7.64 nM and 7.6 nM on CB1 cannabinoid receptor (setting [1]); 8.46 nM and 8.5 nM on CB2 receptor (setting [2]).
Turning to `O=C(NC12CC3CC(CC(C3)C1)C2)c1cc(-c2ccccc2)n(CCCCCCl)n1` [Compound 4-6], the Ki on CB1 cannabinoid receptor (setting [1]) was 12.2 nM and 12 nM; at CB2 receptor (setting [2]), 4.79 nM and 4.8 nM. In addition, the “selectivity CB2” value on CB2 receptor turned out to be 2.5.
As for `Cc1c(C(=O)NC23CC4CC(CC(C4)C2)C3)nn(CCCCCI)c1-c1ccccc1` [Compound 4-10], the Ki on CB1 cannabinoid receptor (setting [1]) was 1.34 nM and 1.3 nM; at CB2 receptor (setting [2]) it was 1.01 nM and 1 nM. Also, the “selectivity CB2” value at CB2 receptor worked out at 1.3.
Take `O=C(NN1CCCCC1)c1nn(-c2ccc(-c3cccnc3)cc2Cl)c(-c2ccc(-c3cccnc3)cc2)c1CO` [Compound 3-20]: the Ki on CB1 cannabinoid receptor (setting [3]) is 154 nM; on CB2 receptor (setting [4]), 1680 nM. In addition, on CB1 cannabinoid receptor, the “selectivity CB1” value stood at 10.9.
For `O=C(Nc1nn(-c2ccc(Cl)cc2Cl)c(-c2ccc(Br)cc2)c1CO)NC1CCCCC1` [Compound 2-19], in that order: 9 nM, 4920 nM and 546.7.
Take `Cc1c(C(=O)NN2CCCCC2)nn(-c2ccc(Cl)cc2Cl)c1-c1ccc(-c2nnn(C)n2)cc1` [Compound 2-3]: the results for the Ki at CB1 cannabinoid receptor (setting [3]) and at CB2 receptor (setting [4]) were 6 nM and 517 nM, respectively. The “selectivity CB1” value on CB1 cannabinoid receptor turned out to be 86.2.
In the same order, the values of `CN(C(=O)c1nn(-c2ccc(Cl)cc2Cl)c(-c2ccc(Br)cc2)c1CO)C1CCCCC1` [Compound 3-1] are 29 nM, 1800 nM and 62.1.
For `Cn1nnnc1-c1ccc(-c2c(CO)c(C(=O)NN3CCCCC3)nn2-c2ccc(Cl)cc2Cl)cc1` [Compound 2-5], in that order: 203 nM, 2130 nM and 10.5.
For `Cc1c(C(=O)NN2CCCCC2)nn(-c2ccc(Cl)cc2Cl)c1-c1ccc(Br)cc1` [Compound 3-16], in that order: 17 nM, 897 nM and 52.8.
In the case of `N#Cc1ccc(-c2c(CO)c(C(=O)NN3CCCCC3)nn2-c2ccc(Cl)cc2Cl)cc1` [Compound 3-22], the Ki on CB1 cannabinoid receptor (setting [3]) was 64 nM; at CB2 receptor (setting [4]), 2740 nM. The “selectivity CB1” value on CB1 cannabinoid receptor was determined as 42.8.
In the same order, the values of `COCc1c(C(=O)NC2CCCCC2)nn(-c2ccc(Cl)cc2Cl)c1-c1ccc(-c2ccncc2)cc1` [Compound 1-19] are 160 nM, 2980 nM and 18.6.
In the case of `Cc1c(C(=O)NC23CC4CC(CC(C4)C2)C3)nn(CCCCCCl)c1-c1ccccc1` [Compound 4-2], the Ki at CB1 cannabinoid receptor (setting [1]) was 1.42 nM and 1.4 nM; on CB2 receptor (setting [2]), 0.704 nM and 0.8 nM. In addition, the “selectivity CB2” value at CB2 receptor is reported as 1.8.
`O=C(NN1CCCCC1)c1nn(-c2ccc(Cl)cc2Cl)c(-c2ccc(-c3cccnc3)cc2)c1CO` [Compound 3-21]: the Ki at CB1 cannabinoid receptor (setting [3]) amounted to 76 nM; on CB2 receptor (setting [4]) it was 207 nM.
Take `Cc1c(C(=O)NN2CCCCC2)nn(-c2ccc(Cl)cc2Cl)c1-c1ccc(-c2cccc(Cl)c2)cc1` [Compound 1-1]: the inhibitory constant (Ki) came out at 1.5 nM on CB1 cannabinoid receptor (setting [3]) and 741 nM at CB2 receptor (setting [4]). For the same compound, the “selectivity CB1” value on CB1 cannabinoid receptor is reported as 491.
For `Cc1c(NC(=O)N2CCCCC2)nn(-c2ccc(Cl)cc2Cl)c1-c1ccc(Br)cc1` [Compound 3-13], in that order: 47 nM, 284 nM and 6.0.
As to `Cc1c(CCC2CCCCC2)nn(-c2ccc(Cl)cc2Cl)c1-c1ccc(Br)cc1` [Compound 1-27], the results for the Ki on CB1 cannabinoid receptor (setting [3]) and on CB2 receptor (setting [4]) were 1040 nM and 26400 nM, respectively. Also, the “selectivity CB1” value at CB1 cannabinoid receptor was found to be 25.3.
As to `Cc1c(C(=O)NC2CC3CCC2(C)C3(C)C)nn(CCCCCCl)c1-c1ccccc1` (stereo not shown) [Compound 4-1], the Ki is 5.9 nM and 6 nM at CB1 cannabinoid receptor (setting [1]); 2.51 nM and 2.5 nM on CB2 receptor (setting [2]). Further, the “selectivity CB2” value on CB2 receptor is listed as 2.4.
With `COCc1c(C(=O)NC2CCCCC2)nn(-c2ccc(Cl)cc2Cl)c1-c1ccc(-c2cccnc2)cc1` [Compound 1-18], the values for the Ki at CB1 cannabinoid receptor (setting [3]) and on CB2 receptor (setting [4]) were 62 nM and 646 nM, respectively. Also, on CB1 cannabinoid receptor, the “selectivity CB1” value was 10.4.
Consider `Cc1c(C(=O)NC2CCCCC2)nn(-c2ccc(Cl)cc2Cl)c1-c1ccc(-c2nnn(C)n2)cc1` [Compound 2-9], for which the Ki came out at 20 nM on CB1 cannabinoid receptor (setting [3]) and 381 nM at CB2 receptor (setting [4]). Besides, the “selectivity CB1” value on CB1 cannabinoid receptor was 19.
Regarding `O=C(NN1CCCCC1)c1nn(-c2ccc(Cl)cc2Cl)c(-c2ccc(Br)cc2)c1CO` [Compound 3-3], the Ki on CB1 cannabinoid receptor (setting [1]) came to 46 nM; at CB2 receptor (setting [2]), 490 nM. Moreover, the “selectivity CB1” value on CB1 cannabinoid receptor was found to be 10.6.
As to `Cc1c(C(=O)NN2CCCCC2)nn(-c2ccc(Cl)cc2Cl)c1-c1ccc(C(=O)O)cc1` [Compound 3-24], the figures for the Ki on CB1 cannabinoid receptor (setting [3]) and on CB2 receptor (setting [4]) were 738 nM and 934 nM, respectively. At CB1 cannabinoid receptor, the “selectivity CB1” value is listed as 1.3.
For `Cc1c(NC(=O)OC2CCCCC2)nn(-c2ccc(Cl)cc2Cl)c1-c1ccc(Br)cc1` [Compound 3-9], in that order: 69 nM, 449 nM and 6.5.
In the same order, the values of `Cc1c(C(=O)N(C)C2CCCCC2)nn(-c2ccc(Cl)cc2Cl)c1-c1ccc(C#N)cc1` [Compound 3-15] are 50 nM, 10800 nM and 216.5.
With `CCCCCC=Cc1nn(-c2ccc(Cl)cc2Cl)c(-c2ccc(Br)cc2)c1C` [Compound 1-26], the inhibition constant Ki at CB1 cannabinoid receptor (setting [3]) was determined as 7680 nM; at CB2 receptor (setting [2]), 52900 nM. Besides, the “selectivity CB1” value at CB1 cannabinoid receptor was 6.9.
Turning to `CN(C(=O)c1nn(-c2ccc(Cl)cc2Cl)c(-c2ccc(-c3ccncc3)cc2)c1CO)C1CCCCC1` [Compound 3-5], the values for the Ki on CB1 cannabinoid receptor (setting [3]) and on CB2 receptor (setting [4]) were 90 nM and 294 nM, respectively. Besides, the “selectivity CB1” value on CB1 cannabinoid receptor came out at 3.3.
As for `Cc1c(C=Cc2ccccc2)nn(-c2ccc(Cl)cc2Cl)c1-c1ccc(Br)cc1` [Compound 1-23], the Ki at CB1 cannabinoid receptor (setting [3]) was determined as 331 nM; on CB2 receptor (setting [4]) it was 16400 nM. At CB1 cannabinoid receptor, the “selectivity CB1” value was 49.6.
Regarding `Cc1c(C(=O)NN2CCCCC2)nn(-c2ccc(Cl)cc2Cl)c1-c1ccc(C(N)=S)cc1` [Compound 3-25], the Ki at CB1 cannabinoid receptor (setting [3]) stood at 86 nM; at CB2 receptor (setting [4]), 127 nM. Besides, the “selectivity CB1” value on CB1 cannabinoid receptor was 1.5.
In the same order, the values of `Cc1c(C(=O)NN2CCCCC2)nn(-c2ccc(Cl)cc2Cl)c1-c1ccc(-c2cccnc2)cc1` [Compound 1-4] are 11.2 nM, 1330 nM and 118.
For `COCc1c(C(=O)NC2CCCCC2)nn(-c2ccc(Cl)cc2Cl)c1-c1ccc(Br)cc1` [Compound 1-9], in that order: 4 nM, 495 nM and 124.
Take `O=C(NN1CCCCC1)c1nn(-c2ccc(-c3cccnc3)cc2Cl)c(-c2ccc(-c3cccnc3)cc2)c1CO` [Compound 3-19]: the Ki on CB1 cannabinoid receptor (setting [3]) stood at 146 nM; on CB2 receptor (setting [4]) it was 1920 nM. Further, the “selectivity CB1” value on CB1 cannabinoid receptor is recorded as 13.2.

The values are drawn from patent US8084467B2, “Pyrazole derivatives as cannabinoid receptor antagonists” (University of Connecticut, priority 2004, dated 2011).
